Columns and labels:
Experiment in all cases: relative viability (nuclei count vs DMSO), 5 days (fraction); higher = more cells survive
NCI-H1944 = system: NCI-H1944
Procedure, shortened: (§1)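 Each reported value is a median over duplicate plates. It expresses relative viability: treated-well nuclei count divided by vehicle-well nuclei count. Lung cancer cell lines in 1536-well plates were dosed by pin tool a day after seeding, alone with one drug or with a fixed anchor-drug dose plus five library-drug doses (not always all listed) in √10 steps, and nuclei were counted after 5 days.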

NCI-H838 = system: NCI-H838
Procedure, shortened: as §1

NCI-H1993 = system: NCI-H1993
Procedure, shortened: as §1

HCC-366 = system: HCC-366
Procedure, shortened: as §1

HCC-78 = system: HCC-78
Procedure, shortened: as §1

NCI-H1793 = system: NCI-H1793
Procedure, shortened: as §1

NCI-H2126 = system: NCI-H2126
Procedure, shortened: as §1

ChaGo-K-1 = system: ChaGo-K-1
Procedure, shortened: as §1

NCI-H358 = system: NCI-H358
Procedure, shortened: as §1

HARA = system: HARA
Procedure, shortened: as §1

LC-2-ad = system: LC-2-ad
Procedure, shortened: as §1

NCI-H23 = system: NCI-H23
Procedure, shortened: as §1

HOP-62 = system: HOP-62
Procedure, shortened: as §1

NCI-H1395 = system: NCI-H1395
Procedure, shortened: as §1

ABC-1 = system: ABC-1
Procedure, shortened: as §1

NCI-H2405 = system: NCI-H2405
Procedure, shortened: as §1

EMC-BAC-2 = system: EMC-BAC-2
Procedure, shortened: as §1

HCC-15 = system: HCC-15
Procedure, shortened: as §1

**Q.** Which relative viability (NCI-H1944; first compound 0.005 µM) does the source give for `COc1cc2nccc(Oc3ccc(NC(=O)Nc4cc(C)on4)c(Cl)c3)c2cc1OC` [Tivozanib] + NC(=O)Nc1cc(-c2cccc(F)c2)sc1C(=O)N[C@H]1CCCNC1 [AZD7762] (partner 0.2 µM) here?
**A.** The relative viability was 0.392.

**Q.** And the relative viability (NCI-H1944; first compound 0.01581 µM)?
**A.** The relative viability was 0.552.

**Q.** And the relative viability (NCI-H1944; first compound 0.05 µM)?
**A.** The relative viability was 0.378.

**Q.** And the relative viability (NCI-H1944; first compound 0.1581 µM)?
**A.** Its relative viability is 0.452.

**Q.** What about the relative viability (NCI-H1944; first compound 0.5 µM) of the same molecule?
**A.** The relative viability was 0.487.

**Q.** What about the relative viability (NCI-H838; first compound 0.005 µM) of the same molecule?
**A.** Its relative viability is 0.918.

**Q.** And the relative viability (NCI-H838; first compound 0.01581 µM)?
**A.** The relative viability was 0.895.

**Q.** What about the relative viability (NCI-H838; first compound 0.05 µM) of the same molecule?
**A.** The relative viability was 0.973.

**Q.** And the relative viability (NCI-H838; first compound 0.1581 µM)?
**A.** Its relative viability is 1.04.

**Q.** What about the relative viability (NCI-H838; first compound 0.5 µM) of the same molecule?
**A.** The relative viability was 0.95.

**Q.** And the relative viability (NCI-H1993; first compound 0.005 µM)?
**A.** Its relative viability is 0.722.

**Q.** What about the relative viability (NCI-H1993; first compound 0.01581 µM) of the same molecule?
**A.** The relative viability was 0.714.

**Q.** And the relative viability (NCI-H1993; first compound 0.05 µM)?
**A.** Its relative viability is 0.968.

**Q.** What about the relative viability (NCI-H1993; first compound 0.1581 µM) of the same molecule?
**A.** The relative viability was 0.631.

**Q.** What about the relative viability (NCI-H1993; first compound 0.5 µM) of the same molecule?
**A.** The relative viability was 0.664.

**Q.** And the relative viability (HCC-366; first compound 0.005 µM)?
**A.** The relative viability was 0.333.

**Q.** What about the relative viability (HCC-366; first compound 0.01581 µM) of the same molecule?
**A.** Its relative viability is 0.245.

**Q.** What about the relative viability (HCC-366; first compound 0.05 µM) of the same molecule?
**A.** Its relative viability is 0.35.

**Q.** What about the relative viability (HCC-366; first compound 0.1581 µM) of the same molecule?
**A.** Its relative viability is 0.362.

**Q.** And the relative viability (HCC-366; first compound 0.5 µM)?
**A.** Its relative viability is 0.25.

**Q.** What about the relative viability (HCC-78; first compound 0.005 µM) of the same molecule?
**A.** Its relative viability is 0.551.

**Q.** What about the relative viability (HCC-78; first compound 0.01581 µM) of the same molecule?
**A.** Its relative viability is 0.677.

**Q.** And the relative viability (HCC-78; first compound 0.05 µM)?
**A.** Its relative viability is 0.674.

**Q.** What about the relative viability (HCC-78; first compound 0.1581 µM) of the same molecule?
**A.** Its relative viability is 0.497.

**Q.** And the relative viability (HCC-78; first compound 0.5 µM)?
**A.** Its relative viability is 0.657.

**Q.** And the relative viability (NCI-H1793; first compound 0.005 µM)?
**A.** The relative viability was 0.448.

**Q.** And the relative viability (NCI-H1793; first compound 0.01581 µM)?
**A.** The relative viability was 0.391.

**Q.** What about the relative viability (NCI-H1793; first compound 0.05 µM) of the same molecule?
**A.** Its relative viability is 0.419.

**Q.** And the relative viability (NCI-H1793; first compound 0.5 µM)?
**A.** Its relative viability is 0.328.

**Q.** What about the relative viability (NCI-H2126; first compound 0.005 µM) of the same molecule?
**A.** Its relative viability is 1.06.

**Q.** And the relative viability (NCI-H2126; first compound 0.01581 µM)?
**A.** Its relative viability is 0.936.

**Q.** What about the relative viability (NCI-H2126; first compound 0.05 µM) of the same molecule?
**A.** The relative viability was 1.02.

**Q.** What about the relative viability (NCI-H2126; first compound 0.1581 µM) of the same molecule?
**A.** Its relative viability is 0.732.

**Q.** What about the relative viability (NCI-H2126; first compound 0.5 µM) of the same molecule?
**A.** The relative viability was 1.01.

**Q.** And the relative viability (ChaGo-K-1; first compound 0.005 µM)?
**A.** The relative viability was 0.847.

**Q.** And the relative viability (ChaGo-K-1; first compound 0.01581 µM)?
**A.** Its relative viability is 0.831.

**Q.** What about the relative viability (ChaGo-K-1; first compound 0.05 µM) of the same molecule?
**A.** Its relative viability is 0.901.

**Q.** What about the relative viability (ChaGo-K-1; first compound 0.1581 µM) of the same molecule?
**A.** The relative viability was 0.909.

**Q.** What about the relative viability (ChaGo-K-1; first compound 0.5 µM) of the same molecule?
**A.** Its relative viability is 0.845.

**Q.** And the relative viability (NCI-H358; first compound 0.005 µM)?
**A.** The relative viability was 0.449.

**Q.** What about the relative viability (NCI-H358; first compound 0.01581 µM) of the same molecule?
**A.** Its relative viability is 0.621.

**Q.** And the relative viability (NCI-H358; first compound 0.05 µM)?
**A.** Its relative viability is 0.552.

**Q.** What about the relative viability (NCI-H358; first compound 0.1581 µM) of the same molecule?
**A.** Its relative viability is 0.513.

**Q.** What about the relative viability (NCI-H358; first compound 0.5 µM) of the same molecule?
**A.** Its relative viability is 0.469.

**Q.** What about the relative viability (HARA; first compound 0.005 µM) of the same molecule?
**A.** The relative viability was 0.268.

**Q.** What about the relative viability (HARA; first compound 0.01581 µM) of the same molecule?
**A.** The relative viability was 0.335.

**Q.** And the relative viability (HARA; first compound 0.05 µM)?
**A.** The relative viability was 0.424.

**Q.** What about the relative viability (HARA; first compound 0.1581 µM) of the same molecule?
**A.** Its relative viability is 0.231.

**Q.** What about the relative viability (HARA; first compound 0.5 µM) of the same molecule?
**A.** The relative viability was 0.267.

**Q.** What about the relative viability (LC-2-ad; first compound 0.005 µM) of the same molecule?
**A.** Its relative viability is 0.821.

**Q.** And the relative viability (LC-2-ad; first compound 0.01581 µM)?
**A.** The relative viability was 0.846.

**Q.** And the relative viability (LC-2-ad; first compound 0.05 µM)?
**A.** The relative viability was 0.856.

**Q.** And the relative viability (LC-2-ad; first compound 0.1581 µM)?
**A.** The relative viability was 0.881.

**Q.** And the relative viability (LC-2-ad; first compound 0.5 µM)?
**A.** The relative viability was 0.815.

**Q.** And the relative viability (NCI-H23; first compound 0.005 µM)?
**A.** The relative viability was 0.185.

**Q.** And the relative viability (NCI-H23; first compound 0.01581 µM)?
**A.** Its relative viability is 0.229.

**Q.** What about the relative viability (NCI-H23; first compound 0.05 µM) of the same molecule?
**A.** Its relative viability is 0.295.

**Q.** And the relative viability (NCI-H23; first compound 0.5 µM)?
**A.** Its relative viability is 0.176.

**Q.** And the relative viability (HOP-62; first compound 0.005 µM)?
**A.** The relative viability was 0.559.

**Q.** And the relative viability (HOP-62; first compound 0.01581 µM)?
**A.** The relative viability was 0.646.

**Q.** What about the relative viability (HOP-62; first compound 0.05 µM) of the same molecule?
**A.** Its relative viability is 0.383.

**Q.** What about the relative viability (HOP-62; first compound 0.1581 µM) of the same molecule?
**A.** The relative viability was 0.429.

**Q.** What about the relative viability (HOP-62; first compound 0.5 µM) of the same molecule?
**A.** The relative viability was 0.467.

**Q.** And the relative viability (NCI-H1395; first compound 0.005 µM)?
**A.** Its relative viability is 0.359.

**Q.** And the relative viability (NCI-H1395; first compound 0.01581 µM)?
**A.** The relative viability was 0.389.

**Q.** And the relative viability (NCI-H1395; first compound 0.05 µM)?
**A.** Its relative viability is 0.402.

**Q.** What about the relative viability (NCI-H1395; first compound 0.1581 µM) of the same molecule?
**A.** Its relative viability is 0.386.

**Q.** And the relative viability (NCI-H1395; first compound 0.5 µM)?
**A.** Its relative viability is 0.35.

**Q.** What about the relative viability (ABC-1; first compound 0.005 µM) of the same molecule?
**A.** Its relative viability is 1.05.

**Q.** What about the relative viability (ABC-1; first compound 0.01581 µM) of the same molecule?
**A.** The relative viability was 0.865.

**Q.** And the relative viability (ABC-1; first compound 0.05 µM)?
**A.** Its relative viability is 0.895.

**Q.** And the relative viability (ABC-1; first compound 0.1581 µM)?
**A.** The relative viability was 1.12.

**Q.** And the relative viability (ABC-1; first compound 0.5 µM)?
**A.** Its relative viability is 0.785.

**Q.** What about the relative viability (NCI-H2405; first compound 0.005 µM) of the same molecule?
**A.** Its relative viability is 0.759.

**Q.** And the relative viability (NCI-H2405; first compound 0.01581 µM)?
**A.** Its relative viability is 0.893.

**Q.** What about the relative viability (NCI-H2405; first compound 0.05 µM) of the same molecule?
**A.** Its relative viability is 0.735.

**Q.** And the relative viability (NCI-H2405; first compound 0.1581 µM)?
**A.** The relative viability was 0.905.

**Q.** And the relative viability (NCI-H2405; first compound 0.5 µM)?
**A.** The relative viability was 0.518.

**Q.** And the relative viability (EMC-BAC-2; first compound 0.005 µM)?
**A.** The relative viability was 1.06.

**Q.** And the relative viability (EMC-BAC-2; first compound 0.01581 µM)?
**A.** Its relative viability is 1.15.

**Q.** What about the relative viability (EMC-BAC-2; first compound 0.05 µM) of the same molecule?
**A.** Its relative viability is 1.06.

**Q.** And the relative viability (EMC-BAC-2; first compound 0.1581 µM)?
**A.** Its relative viability is 1.06.

**Q.** And the relative viability (EMC-BAC-2; first compound 0.5 µM)?
**A.** The relative viability was 1.04.

**Q.** And the relative viability (HCC-15; first compound 0.005 µM)?
**A.** The relative viability was 1.18.

**Q.** What about the relative viability (HCC-15; first compound 0.01581 µM) of the same molecule?
**A.** Its relative viability is 1.28.

**Q.** And the relative viability (HCC-15; first compound 0.05 µM)?
**A.** Its relative viability is 1.34.

**Q.** What about the relative viability (HCC-15; first compound 0.1581 µM) of the same molecule?
**A.** Its relative viability is 1.29.

**Q.** And the relative viability (HCC-15; first compound 0.5 µM)?
**A.** The relative viability was 1.33.

From the supplement of paper PMC10307832
